Publication PMC10945555, “Improving Activity of New Arylurea Agents against Multidrug-Resistant and Biofilm-Producing Staphylococcus epidermidis” (ACS Medicinal Chemistry Letters, 2024)
Values after ≈ are worked out from the molar mass of the structure shown. Read-outs that look alike come from different tables or passages of the source.

What was measured:
[1] = tested on: Staphylococcus aureus ATCC BAA-976; test: MIC, broth microdilution, MDR/BPSA reference strain; format: cell-based; settings: ATCCBAA976; Staphylococcus aureus ATCC BAA-976; read-out: MIC MDR/BPSA
From the text: These strains included susceptible, multidrug-resistant, and biofilm-producing strains of S. epidermidis and S. aureus (MSSE, MDR/BPSE, and MDR/BPSA, respectively). The cornerstone antibiotic linezolid served as a positive control (Table 1). The impact of structural modifications at the aryloxy fragment and the aromatic moiety bound to the propyl linker on the inhibitory activity was initially investigated. […] Further optimization focused on evaluating the impact of the type of substituent and its position on the arylsulfonamide fragment’s activity.
(§1) 2 Biological assay protocols
(§2) Microbiological tests were carried out under aseptic conditions in a laminar chamber of the 2nd […]
(§3) (BioTectum 1.2, Alchem Poland). The assessment of antimicrobial activity was carried out for final compounds in the form of free bases, soluble in DMSO (Merck, Germany), at the initial […]
(§4) concentration of 1 mg/mL. […]
were provided by Cayman Chemical, USA.
The activity of all newly synthesized compounds was tested in vitro on a panel of selected reference strains from the American Type Culture Collection (ATCC) of Gram-positive […]
(§5) 2.2 Effect of evaluated compounds on planktonic cells
(§6) The susceptibility of three reference bacterial strains (Staphylococcus epidermidis ATCC […]
(§7) Table S1) and 81 clinical MDR S. epidermidis (Table S2) to the tested compounds was assessed by determining the MIC value (Minimal Inhibitory Concentration) by microdilution in a liquid medium in 96-well flat-bottom cell culture plates (Nest Biotechnology Scientific, USA). The antibacterial properties of the compo unds were tested in the concentration range from 50 µg/mL to 0.1 µg/mL by making a series of double dilutions of the compound in liquid Mueller -Hinton II Broth Cation Adjusted (MHB II, BBL TM, USA) according to the European Committee on […]
(§8) Antimicrobial Susceptibility Testing guidelines (EUCAST).2,3 The determinations were performed twice. The MIC50 and MIC90 values were determined for each of the tested

[2] = tested on: clinical MDR Staphylococcus epidermidis isolates; test: MIC, broth microdilution, 81 clinical MDR strains; format: cell-based; settings: Staphylococcus epidermidis
Description: as §1, §2, §3, §4
were provided by Cayman Chemical, USA. […]
The antibacterial activity of selected compounds was also tested on a panel of 81 unrelated, multidrug -resistant clinical strains of Staphylococcus epidermidis from the own collection of the Department of Pharmaceutical Microbiology of the Jagiellonian University Medical College.
as §5, §6, §7, §8

O=S(=O)(NC1CCN(CCC(Oc2ccc(C(F)(F)F)cc2)c2cccs2)CC1)c1cccc(Br)c1 (stereo not shown) [Compound 18]
MIC [1]: 50 µg/mL (≈ 82.8 µM)
MIC ([2]; clinical strain 1 (Table S2), read-out: MIC): 0.8 µg/mL (≈ 1.33 µM)
MIC ([2]; clinical strain 2 (Table S2), read-out: MIC): 3.12 µg/mL (≈ 5.18 µM)
MIC ([2]; clinical strain 3 (Table S2), read-out: MIC): 6.25 µg/mL (≈ 10.4 µM)
MIC ([2]; clinical strain 4 (Table S2), read-out: MIC): 50 µg/mL (≈ 82.8 µM)
MIC ([2]; clinical strain 5 (Table S2), read-out: MIC): 1.6 µg/mL (≈ 2.65 µM)
MIC ([2]; clinical strain 6 (Table S2), read-out: MIC): 12.5 µg/mL (≈ 20.7 µM)
MIC ([2]; clinical strain 7 (Table S2), read-out: MIC): 25 µg/mL (≈ 41.4 µM)
MIC ([2]; clinical strain 8 (Table S2), read-out: MIC): 3.12 µg/mL (≈ 5.18 µM)
MIC ([2]; clinical strain 9 (Table S2), read-out: MIC): 50 µg/mL (≈ 82.8 µM)
MIC ([2]; clinical strain 10 (Table S2), read-out: MIC): 50 µg/mL (≈ 82.8 µM)
MIC ([2]; clinical strain 11 (Table S2), read-out: MIC): 6.25 µg/mL (≈ 10.4 µM)
MIC ([2]; clinical strain 12 (Table S2), read-out: MIC): 12.5 µg/mL (≈ 20.7 µM)
MIC ([2]; clinical strain 13 (Table S2), read-out: MIC): 12.5 µg/mL (≈ 20.7 µM)
MIC ([2]; clinical strain 14 (Table S2), read-out: MIC): 50 µg/mL (≈ 82.8 µM)
MIC ([2]; clinical strain 15 (Table S2), read-out: MIC): 50 µg/mL (≈ 82.8 µM)
MIC ([2]; clinical strain 16 (Table S2), read-out: MIC): 50 µg/mL (≈ 82.8 µM)
MIC ([2]; clinical strain 17 (Table S2), read-out: MIC): 12.5 µg/mL (≈ 20.7 µM)
MIC ([2]; clinical strain 18 (Table S2), read-out: MIC): 50 µg/mL (≈ 82.8 µM)
MIC ([2]; clinical strain 19 (Table S2), read-out: MIC): 6.25 µg/mL (≈ 10.4 µM)
MIC ([2]; clinical strain 20 (Table S2), read-out: MIC): 3.12 µg/mL (≈ 5.18 µM)
MIC ([2]; clinical strain 21 (Table S2), read-out: MIC): 3.12 µg/mL (≈ 5.18 µM)
MIC ([2]; clinical strain 22 (Table S2), read-out: MIC): 3.12 µg/mL (≈ 5.18 µM)
MIC ([2]; clinical strain 23 (Table S2), read-out: MIC): 0.8 µg/mL (≈ 1.33 µM)
MIC ([2]; clinical strain 24 (Table S2), read-out: MIC): 3.12 µg/mL (≈ 5.18 µM)
MIC ([2]; clinical strain 25 (Table S2), read-out: MIC): 6.25 µg/mL (≈ 10.4 µM)
MIC ([2]; clinical strain 26 (Table S2), read-out: MIC): 50 µg/mL (≈ 82.8 µM)
MIC ([2]; clinical strain 27 (Table S2), read-out: MIC): 0.8 µg/mL (≈ 1.33 µM)
MIC ([2]; clinical strain 28 (Table S2), read-out: MIC): 50 µg/mL (≈ 82.8 µM)
MIC ([2]; clinical strain 29 (Table S2), read-out: MIC): 50 µg/mL (≈ 82.8 µM)
MIC ([2]; clinical strain 30 (Table S2), read-out: MIC): 50 µg/mL (≈ 82.8 µM)
MIC ([2]; clinical strain 31 (Table S2), read-out: MIC): 50 µg/mL (≈ 82.8 µM)
MIC ([2]; clinical strain 32 (Table S2), read-out: MIC): 50 µg/mL (≈ 82.8 µM)
MIC ([2]; clinical strain 33 (Table S2), read-out: MIC): 50 µg/mL (≈ 82.8 µM)
MIC ([2]; clinical strain 34 (Table S2), read-out: MIC): 50 µg/mL (≈ 82.8 µM)
MIC ([2]; clinical strain 35 (Table S2), read-out: MIC): 1.6 µg/mL (≈ 2.65 µM)
MIC ([2]; clinical strain 36 (Table S2), read-out: MIC): 50 µg/mL (≈ 82.8 µM)
MIC ([2]; clinical strain 37 (Table S2), read-out: MIC): 50 µg/mL (≈ 82.8 µM)
MIC ([2]; clinical strain 38 (Table S2), read-out: MIC): 50 µg/mL (≈ 82.8 µM)
MIC ([2]; clinical strain 39 (Table S2), read-out: MIC): 50 µg/mL (≈ 82.8 µM)
MIC ([2]; clinical strain 40 (Table S2), read-out: MIC): 50 µg/mL (≈ 82.8 µM)
MIC ([2]; clinical strain 41 (Table S2), read-out: MIC): 6.25 µg/mL (≈ 10.4 µM)
MIC ([2]; clinical strain 42 (Table S2), read-out: MIC): 1.6 µg/mL (≈ 2.65 µM)
MIC ([2]; clinical strain 43 (Table S2), read-out: MIC): 1.6 µg/mL (≈ 2.65 µM)
MIC ([2]; clinical strain 44 (Table S2), read-out: MIC): 50 µg/mL (≈ 82.8 µM)
MIC ([2]; clinical strain 45 (Table S2), read-out: MIC): 50 µg/mL (≈ 82.8 µM)
MIC ([2]; clinical strain 46 (Table S2), read-out: MIC): 50 µg/mL (≈ 82.8 µM)
MIC ([2]; clinical strain 47 (Table S2), read-out: MIC): 50 µg/mL (≈ 82.8 µM)
MIC ([2]; clinical strain 48 (Table S2), read-out: MIC): 50 µg/mL (≈ 82.8 µM)
MIC ([2]; clinical strain 49 (Table S2), read-out: MIC): 50 µg/mL (≈ 82.8 µM)
MIC ([2]; clinical strain 50 (Table S2), read-out: MIC): 50 µg/mL (≈ 82.8 µM)
MIC ([2]; clinical strain 51 (Table S2), read-out: MIC): 50 µg/mL (≈ 82.8 µM)
MIC ([2]; clinical strain 52 (Table S2), read-out: MIC): 50 µg/mL (≈ 82.8 µM)
MIC ([2]; clinical strain 53 (Table S2), read-out: MIC): 50 µg/mL (≈ 82.8 µM)
MIC ([2]; clinical strain 54 (Table S2), read-out: MIC): 50 µg/mL (≈ 82.8 µM)
MIC ([2]; clinical strain 55 (Table S2), read-out: MIC): 50 µg/mL (≈ 82.8 µM)
MIC ([2]; clinical strain 56 (Table S2), read-out: MIC): 50 µg/mL (≈ 82.8 µM)
MIC ([2]; clinical strain 57 (Table S2), read-out: MIC): 50 µg/mL (≈ 82.8 µM)
MIC ([2]; clinical strain 58 (Table S2), read-out: MIC): 50 µg/mL (≈ 82.8 µM)
MIC ([2]; clinical strain 59 (Table S2), read-out: MIC): 50 µg/mL (≈ 82.8 µM)
MIC ([2]; clinical strain 60 (Table S2), read-out: MIC): 50 µg/mL (≈ 82.8 µM)
MIC ([2]; clinical strain 61 (Table S2), read-out: MIC): 50 µg/mL (≈ 82.8 µM)
MIC ([2]; clinical strain 62 (Table S2), read-out: MIC): 50 µg/mL (≈ 82.8 µM)
MIC ([2]; clinical strain 63 (Table S2), read-out: MIC): 50 µg/mL (≈ 82.8 µM)
MIC ([2]; clinical strain 64 (Table S2), read-out: MIC): 50 µg/mL (≈ 82.8 µM)
MIC ([2]; clinical strain 65 (Table S2), read-out: MIC): 6.25 µg/mL (≈ 10.4 µM)
MIC ([2]; clinical strain 66 (Table S2), read-out: MIC): 3.12 µg/mL (≈ 5.18 µM)
MIC ([2]; clinical strain 67 (Table S2), read-out: MIC): 50 µg/mL (≈ 82.8 µM)
MIC ([2]; clinical strain 68 (Table S2), read-out: MIC): 50 µg/mL (≈ 82.8 µM)
MIC ([2]; clinical strain 69 (Table S2), read-out: MIC): 50 µg/mL (≈ 82.8 µM)
MIC ([2]; clinical strain 70 (Table S2), read-out: MIC): 50 µg/mL (≈ 82.8 µM)
MIC ([2]; clinical strain 71 (Table S2), read-out: MIC): 50 µg/mL (≈ 82.8 µM)
MIC ([2]; clinical strain 72 (Table S2), read-out: MIC): 50 µg/mL (≈ 82.8 µM)
MIC ([2]; clinical strain 73 (Table S2), read-out: MIC): 50 µg/mL (≈ 82.8 µM)
MIC ([2]; clinical strain 74 (Table S2), read-out: MIC): 50 µg/mL (≈ 82.8 µM)
MIC ([2]; clinical strain 75 (Table S2), read-out: MIC): 50 µg/mL (≈ 82.8 µM)
MIC ([2]; clinical strain 76 (Table S2), read-out: MIC): 50 µg/mL (≈ 82.8 µM)
MIC ([2]; clinical strain 77 (Table S2), read-out: MIC): 0.8 µg/mL (≈ 1.33 µM)
MIC ([2]; clinical strain 78 (Table S2), read-out: MIC): 50 µg/mL (≈ 82.8 µM)
MIC ([2]; clinical strain 79 (Table S2), read-out: MIC): 50 µg/mL (≈ 82.8 µM)
MIC ([2]; clinical strain 80 (Table S2), read-out: MIC): 50 µg/mL (≈ 82.8 µM)
MIC ([2]; clinical strain 81 (Table S2), read-out: MIC): 3.12 µg/mL (≈ 5.18 µM)
MIC ([2]; mean of MIC values against clinical MDR-SE isolates, read-out: mean MIC): 35.2 µg/mL (≈ 58.3 µM)
MIC50 ([2]; 81 clinical strains, concentration inhibiting growth of 50% clinical isolates): 50 µg/mL (≈ 82.8 µM)
MIC90 ([2]; 81 clinical strains, concentration inhibiting growth of 90% of clinical isolates): 50 µg/mL (≈ 82.8 µM)
